Patent US10004732B2 (Novartis AG, priority 2014, dated 2018)
Where a name gives a salt, the structure may show the parent alone.

Legend:
[1] = system: IL-8-induced neutrophil shape change in human whole blood; test: Whole blood neutrophil shape change assay (L); format: cell-based; settings: Homo sapiens, Neutrophil, IL-8, human whole blood, read-out: Assay L WBSC IC50
[2] = biological target: T1, PI 3-kinase alpha (Homo sapiens, UniProt P42336); test: Kinase Glo Luminescent Kinase Assay (Kglo), assay A; format: biochemical; settings: read-out: Assay A PI3Kα IC50
Target sequence in this assay (P42336 whole entry): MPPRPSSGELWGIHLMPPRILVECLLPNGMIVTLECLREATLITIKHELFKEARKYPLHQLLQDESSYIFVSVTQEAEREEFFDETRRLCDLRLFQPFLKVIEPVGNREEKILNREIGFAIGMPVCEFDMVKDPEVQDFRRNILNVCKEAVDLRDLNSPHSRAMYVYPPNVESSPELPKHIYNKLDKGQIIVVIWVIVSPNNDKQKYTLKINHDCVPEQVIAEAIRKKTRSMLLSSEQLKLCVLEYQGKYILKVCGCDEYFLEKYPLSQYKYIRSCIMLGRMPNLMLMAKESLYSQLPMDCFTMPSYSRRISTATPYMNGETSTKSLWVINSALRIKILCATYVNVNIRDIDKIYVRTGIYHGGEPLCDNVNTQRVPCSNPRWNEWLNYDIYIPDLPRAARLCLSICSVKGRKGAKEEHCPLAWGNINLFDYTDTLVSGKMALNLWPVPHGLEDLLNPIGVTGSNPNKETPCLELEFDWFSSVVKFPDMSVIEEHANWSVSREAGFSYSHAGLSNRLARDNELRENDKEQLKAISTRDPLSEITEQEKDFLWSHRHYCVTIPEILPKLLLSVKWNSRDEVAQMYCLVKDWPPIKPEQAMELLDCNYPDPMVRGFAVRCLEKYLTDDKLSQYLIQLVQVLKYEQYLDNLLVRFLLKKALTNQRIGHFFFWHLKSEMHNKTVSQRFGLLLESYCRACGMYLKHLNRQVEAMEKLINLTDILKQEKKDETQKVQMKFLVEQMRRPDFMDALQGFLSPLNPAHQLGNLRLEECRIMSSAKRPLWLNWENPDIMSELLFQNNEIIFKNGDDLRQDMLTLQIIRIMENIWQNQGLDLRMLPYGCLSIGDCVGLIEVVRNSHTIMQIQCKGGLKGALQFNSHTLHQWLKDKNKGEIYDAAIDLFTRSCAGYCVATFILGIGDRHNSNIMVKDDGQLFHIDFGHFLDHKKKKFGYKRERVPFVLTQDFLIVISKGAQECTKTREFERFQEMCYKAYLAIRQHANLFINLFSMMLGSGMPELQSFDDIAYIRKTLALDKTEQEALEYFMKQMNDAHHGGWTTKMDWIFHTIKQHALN

[3] = biological target: T2, PI 3-kinase delta (Homo sapiens, UniProt O00329); test: TR-FRET Adapta assay, assay F; settings: read-out: Assay F PI3Kδ IC50
Target sequence in this assay (O00329 whole entry): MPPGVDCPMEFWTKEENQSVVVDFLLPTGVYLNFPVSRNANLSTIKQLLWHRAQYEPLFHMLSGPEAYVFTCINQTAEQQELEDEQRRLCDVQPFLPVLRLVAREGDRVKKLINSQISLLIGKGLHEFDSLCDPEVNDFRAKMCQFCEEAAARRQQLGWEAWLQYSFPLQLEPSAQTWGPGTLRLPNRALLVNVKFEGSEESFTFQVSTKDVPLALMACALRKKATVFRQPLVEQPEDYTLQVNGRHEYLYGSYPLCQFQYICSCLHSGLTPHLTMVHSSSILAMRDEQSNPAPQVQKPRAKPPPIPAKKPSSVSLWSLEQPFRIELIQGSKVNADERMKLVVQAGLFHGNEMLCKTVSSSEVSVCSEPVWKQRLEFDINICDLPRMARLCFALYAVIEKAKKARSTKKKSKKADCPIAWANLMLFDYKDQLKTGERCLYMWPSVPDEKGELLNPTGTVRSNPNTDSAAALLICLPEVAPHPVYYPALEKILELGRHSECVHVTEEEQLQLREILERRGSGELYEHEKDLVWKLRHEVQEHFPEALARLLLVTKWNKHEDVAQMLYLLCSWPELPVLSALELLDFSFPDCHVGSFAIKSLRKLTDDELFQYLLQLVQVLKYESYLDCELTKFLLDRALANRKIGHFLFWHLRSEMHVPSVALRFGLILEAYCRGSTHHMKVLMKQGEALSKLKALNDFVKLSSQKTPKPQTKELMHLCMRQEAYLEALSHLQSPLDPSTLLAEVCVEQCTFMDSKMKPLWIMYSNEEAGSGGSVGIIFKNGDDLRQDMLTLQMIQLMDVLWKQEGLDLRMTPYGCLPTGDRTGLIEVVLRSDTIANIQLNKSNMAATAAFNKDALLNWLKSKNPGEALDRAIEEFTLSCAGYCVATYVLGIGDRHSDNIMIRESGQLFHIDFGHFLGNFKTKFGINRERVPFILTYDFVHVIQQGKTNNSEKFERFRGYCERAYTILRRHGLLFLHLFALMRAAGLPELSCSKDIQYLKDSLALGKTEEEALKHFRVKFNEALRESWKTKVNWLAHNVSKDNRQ
Target sequence in this assay (P27986 461-568 partner): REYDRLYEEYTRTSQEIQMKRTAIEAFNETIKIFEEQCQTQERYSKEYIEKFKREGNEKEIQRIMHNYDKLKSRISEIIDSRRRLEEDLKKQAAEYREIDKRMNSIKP

[4] = Microsomal clearance assay (M); settings: intrinsic clearance in rat liver microsomes
Procedure: The experiments were performed in 96-well glass plates at 37° C. on an automated Tecan EVO platform. Test compounds at a concentration of 10 mM in pure DMSO were diluted 1:1000 in water to 10 μM. […] Reactions were initiated by the addition of 150 μL of a cofactor solution containing 2 mM NADPH.

[5] = biological target: T3, PI 3-kinase gamma (Homo sapiens, UniProt P48736); test: TR-FRET Adapta assay, assay E; format: biochemical; settings: read-out: Assay E PI3Kγ IC50
[6] = biological target: T4, PI 3-kinase beta (Homo sapiens, UniProt P42338); test: Kinase Glo Luminescent Kinase Assay (Kglo), assay B; format: biochemical; settings: read-out: Assay B PI3Kβ IC50
Target sequence in this assay (P42338 whole entry): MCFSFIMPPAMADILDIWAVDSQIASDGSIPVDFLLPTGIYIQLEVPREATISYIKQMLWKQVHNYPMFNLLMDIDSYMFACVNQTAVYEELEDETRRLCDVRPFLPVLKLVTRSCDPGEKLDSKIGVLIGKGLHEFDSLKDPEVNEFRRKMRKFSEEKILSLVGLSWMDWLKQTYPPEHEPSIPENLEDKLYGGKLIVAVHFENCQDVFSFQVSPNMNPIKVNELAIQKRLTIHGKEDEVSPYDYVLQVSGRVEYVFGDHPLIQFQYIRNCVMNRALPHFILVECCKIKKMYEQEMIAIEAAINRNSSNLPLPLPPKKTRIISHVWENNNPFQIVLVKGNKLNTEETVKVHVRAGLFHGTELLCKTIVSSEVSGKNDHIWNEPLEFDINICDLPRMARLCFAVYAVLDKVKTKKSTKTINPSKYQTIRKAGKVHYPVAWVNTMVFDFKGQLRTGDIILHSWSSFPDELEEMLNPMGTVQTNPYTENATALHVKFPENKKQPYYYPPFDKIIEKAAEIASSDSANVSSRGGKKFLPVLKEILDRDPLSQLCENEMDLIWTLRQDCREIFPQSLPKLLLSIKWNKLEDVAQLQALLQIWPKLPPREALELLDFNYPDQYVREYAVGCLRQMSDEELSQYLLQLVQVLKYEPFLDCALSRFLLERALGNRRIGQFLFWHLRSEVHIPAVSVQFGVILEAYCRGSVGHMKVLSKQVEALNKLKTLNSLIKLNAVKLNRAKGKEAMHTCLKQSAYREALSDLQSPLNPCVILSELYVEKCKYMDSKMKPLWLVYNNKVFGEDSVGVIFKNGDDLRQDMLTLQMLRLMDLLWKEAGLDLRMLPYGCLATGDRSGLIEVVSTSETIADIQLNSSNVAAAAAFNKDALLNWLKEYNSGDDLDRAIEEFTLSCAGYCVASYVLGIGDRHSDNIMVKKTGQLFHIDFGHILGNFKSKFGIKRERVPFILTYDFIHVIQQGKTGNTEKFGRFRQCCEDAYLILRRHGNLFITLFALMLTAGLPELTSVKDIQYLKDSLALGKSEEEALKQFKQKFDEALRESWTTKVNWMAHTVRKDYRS
Target sequence in this assay (P27986 461-568 partner): as the sequence (P27986 461-568 partner) above

[7] = biological target: mTOR (Homo sapiens, UniProt P42345); test: Lanthascreen kinase binding assay, assay G; settings: read-out: Assay G mTOR IC50
Procedure: Lanthascreen™ Kinase Binding Assay for mTOR (G)
Binding of an inhibitor to the kinase competes for binding with the tracer, resulting in a loss of FRET.
50 nL of compound dilutions were dispensed onto white 384-well small volume polystyrene plate.

[8] = biological target: T3, PI 3-kinase gamma; test: Cellular U937 AKT assay K1 (MSD); format: cell-based; settings: U937 cells, K1 format; read-out: Assay K1 PI3Kγ IC50
[9] = biological target: Vps34 (Homo sapiens, UniProt Q8NEB9); test: Kinase Glo Luminescent Kinase Assay (Kglo), assay C; format: biochemical; settings: read-out: Assay C VPS34 IC50
Sequence of Vps34 (Q8NEB9 whole entry, species assumed): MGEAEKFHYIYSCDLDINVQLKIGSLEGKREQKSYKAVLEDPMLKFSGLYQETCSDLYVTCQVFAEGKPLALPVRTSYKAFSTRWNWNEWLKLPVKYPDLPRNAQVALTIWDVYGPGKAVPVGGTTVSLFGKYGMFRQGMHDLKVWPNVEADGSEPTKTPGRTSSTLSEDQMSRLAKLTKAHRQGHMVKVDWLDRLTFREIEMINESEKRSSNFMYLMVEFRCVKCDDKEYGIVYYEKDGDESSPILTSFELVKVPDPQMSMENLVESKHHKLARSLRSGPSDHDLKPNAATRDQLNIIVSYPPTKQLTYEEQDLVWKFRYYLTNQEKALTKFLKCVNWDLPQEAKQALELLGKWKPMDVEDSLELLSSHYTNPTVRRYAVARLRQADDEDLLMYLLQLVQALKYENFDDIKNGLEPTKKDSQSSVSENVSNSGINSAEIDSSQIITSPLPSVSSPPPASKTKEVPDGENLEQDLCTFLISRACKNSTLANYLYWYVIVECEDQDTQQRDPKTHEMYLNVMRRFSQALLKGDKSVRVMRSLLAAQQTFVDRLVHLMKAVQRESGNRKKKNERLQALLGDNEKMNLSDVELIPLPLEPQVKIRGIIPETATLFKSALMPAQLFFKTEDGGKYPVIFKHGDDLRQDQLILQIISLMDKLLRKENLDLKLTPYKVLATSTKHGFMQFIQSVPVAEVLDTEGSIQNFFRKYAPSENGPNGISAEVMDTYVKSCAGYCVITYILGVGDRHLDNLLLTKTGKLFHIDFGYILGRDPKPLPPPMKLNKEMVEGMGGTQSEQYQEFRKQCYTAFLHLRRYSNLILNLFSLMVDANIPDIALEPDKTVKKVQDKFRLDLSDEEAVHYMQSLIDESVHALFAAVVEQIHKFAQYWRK

[10] = biological target: T1, PI 3-kinase alpha; test: Cellular assay H1, p-Akt (S473) in Rat-1 cells, Surefire format; format: cell-based; settings: non-asterisked data: version H1 (Surefire format), Rat-1 cells; read-out: Assay H PI3Kα IC50
[11] = biological target: T4, PI 3-kinase beta; test: Cellular assay I1, p-Akt (S473) in Rat-1 cells, Surefire format; format: cell-based; settings: non-asterisked data: version I1 (Surefire format), Rat-1 cells; read-out: Assay I PI3Kβ IC50
Target sequence in this assay (P42338 whole entry): as the sequence (P42338 whole entry) above
Target sequence in this assay (Q63787 whole entry partner): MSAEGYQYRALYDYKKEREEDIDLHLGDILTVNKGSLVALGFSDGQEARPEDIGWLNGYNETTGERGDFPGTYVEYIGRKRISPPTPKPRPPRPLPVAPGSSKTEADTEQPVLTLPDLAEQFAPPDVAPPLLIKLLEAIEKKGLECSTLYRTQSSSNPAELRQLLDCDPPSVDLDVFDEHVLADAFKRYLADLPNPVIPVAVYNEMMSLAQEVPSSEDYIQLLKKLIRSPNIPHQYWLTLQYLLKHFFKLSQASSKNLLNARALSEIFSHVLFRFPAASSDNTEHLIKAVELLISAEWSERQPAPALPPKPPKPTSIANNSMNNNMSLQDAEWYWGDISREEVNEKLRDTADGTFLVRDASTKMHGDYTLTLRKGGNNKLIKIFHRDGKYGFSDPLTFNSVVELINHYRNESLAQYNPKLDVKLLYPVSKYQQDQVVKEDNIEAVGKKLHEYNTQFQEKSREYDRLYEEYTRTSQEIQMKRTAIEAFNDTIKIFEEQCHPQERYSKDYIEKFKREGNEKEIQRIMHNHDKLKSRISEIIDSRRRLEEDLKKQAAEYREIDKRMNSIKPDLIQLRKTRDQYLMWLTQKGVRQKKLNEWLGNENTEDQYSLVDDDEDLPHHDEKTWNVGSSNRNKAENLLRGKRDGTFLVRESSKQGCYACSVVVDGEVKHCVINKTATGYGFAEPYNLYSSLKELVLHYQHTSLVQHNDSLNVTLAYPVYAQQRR

[12] = biological target: T2, PI 3-kinase delta; test: Cellular assay J1, p-Akt (S473) in Rat-1 cells, Surefire format; format: cell-based; settings: non-asterisked data: version J1 (Surefire format), Rat-1 cells; read-out: Assay J PI3Kδ IC50
Target sequence in this assay (O00329 whole entry): as the sequence (O00329 whole entry) above
Target sequence in this assay (Q63787 whole entry partner): as the sequence (Q63787 whole entry partner) above

[13] = biological target: T3, PI 3-kinase gamma; test: Cellular U937 AKT assay K2 (HTRF); format: cell-based; settings: U937 cells, K2 format; read-out: Assay K2 PI3Kγ IC50
[14] = biological target: PI 4-kinase beta (Homo sapiens, UniProt Q9UBF8); test: Kinase Glo Luminescent Kinase Assay (Kglo), assay D; format: biochemical; settings: read-out: Assay D PI4Kβ IC50
Procedure: Kinase Glo Luminescent Kinase Assay (Kglo) for Pb 3-Kinase Alpha (A), Pb 3-Kinase Beta (B), Vps34 (C), Pb 4-Kinase Beta (D)
The Kinase Glo Luminescent Kinase Assay (Promega, Madison/Wis., USA) is a homogeneous HTS method of measuring kinase activity by quantifying the amount of ATP remaining in solution following a kinase reaction.
L-α-phosphatidylinositol (PI), provided as 10 mg/ml solution in methanol, was transferred into a glass tube and dried under a nitrogen beam. It was then resuspended in 3% OctylGlucoside (1-0-n-octyl-beta-D-glucopyranoside) by vortexing and stored at 4° C. 5 μL of a mix of PI/OctylGlucoside with the PI 3-kinase alpha and PI 3-kinase beta subtypes, or Vps34 or PI 4-kinase beta were added. Kinase reactions were started by the addition of 5 μl of an ATP-mix containing in a final volume 10 μL 10 mM TRIS-HCl pH 7.5, 3 mM MgCl2, 50 mM NaCl, 0.05% CHAPS, 1 mM DTT and 1 μM ATP at room temperature.
All fits were performed with the program XLfit4 (ID Business Solutions, Guildford, UK).

Compound | IC50 [1] [nM] | IC50 [2] [nM] | IC50 [3] [nM] | Assay M RLM CI(int) [4] [µL/min/mg] | IC50 [5] [nM] | IC50 [6] [nM] | IC50 [7] [nM] | IC50 [8] [nM] | IC50 [9] [nM] | IC50 [10] [nM] | IC50 [11] [nM] | IC50 [12] [nM] | IC50 [13] [nM] | IC50 [14] [nM]
Cc1ccc(S(=O)(=O)NCC2(C)COC2)cc1-c1cnc(N)c(-c2cnn(C)c2)n1 [Example 5, 3-[5-Amino-6-(1-methyl-1H-pyrazol-4-yl)-pyrazin-2-yl]-4-methyl-N-(3-methyl-oxetan-3-ylmethyl)-benzenesulfonamide] | 696 | 680 | 1000 | 26 | 12 | 690 | > 10000 | 78 | > 10000 | > 10000 | > 10000 | 3450 | 261 | 6700
Cc1ccc(S(=O)(=O)NCCN)cc1-c1cnc(N)c(-n2cncn2)n1 [Example 33, N-(2-Amino-ethyl)-3-(5-amino-6-[1,2,4]triazol-1-yl-pyrazin-2-yl)-4-methyl-benzenesulfonamide trifluoroacetic acid salt] | 742 | 210 | 780 | 12 | 47 | 380 | 1500 | 1980 | > 10000 |  |  |  | 622 | 910
Cc1ncc(-c2nc(-c3cc(S(=O)(=O)NCC4(CO)COC4)ccc3C)cnc2N)s1 [Example 44, 3-(5-Amino-6-(2-methylthiazol-5-yl)pyrazin-2-yl)-N-((3-(hydroxymethyl)oxetan-3-yl)methyl)-4-methylbenzenesulfonamide] | 413 | 60 | 150 | 37 | 5 | 240 |  | 22 | 2300 | 7040 | > 10000 | > 10000 | 59 | 1600
Cc1ncc(-c2nc(-c3cc(S(=O)(=O)NCC4(O)COC4)ccc3C)cnc2N)s1 [Example 45.11, 3-(5-Amino-6-(2-methylthiazol-5-yl)pyrazin-2-yl)-N-((3-hydroxyoxetan-3-yl)methyl)-4-methylbenzenesulfonamide] | 79 | 40 | 130 | 43 | 5 | 290 |  | 12 | 1600 |  |  |  | 26 | 1200
Cc1ccc(S(=O)(=O)NCC(C)(C)O)cc1-c1cnc(N)c(-c2cnn(C)c2C)n1 [Example 46, 3-(5-Amino-6-(1,5-dimethyl-1H-pyrazol-4-yl)pyrazin-2-yl)-N-(2-hydroxy-2-methylpropyl)-4-methylbenzenesulfonamide] | 730 | 220 | 450 | 24 | 26 | 820 | > 10000 | 145 | > 10000 |  |  |  | 331 | > 10000
Cc1ccc(S(=O)(=O)NCCC(C)(C)O)cc1-c1cnc(N)c(-c2cnn(C)n2)n1 [Example 85, 3-(5-Amino-6-(2-methyl-2H-1,2,3-triazol-4-yl)pyrazin-2-yl)-N-(3-hydroxy-3-methylbutyl)-4-methylbenzenesulfonamide] | 497 | 90 | 120 | 73 | 21 | 1200 | 7900 | 41 | > 10000 |  |  |  | 65 | > 10000
Cc1ccc(S(=O)(=O)NCCC(C)(C)O)cc1-c1cnc(N)c(-c2cscn2)n1 [Example 108, 3-(5-Amino-6-(thiazol-4-yl)pyrazin-2-yl)-N-(3-hydroxy-3-methylbutyl)-4-methylbenzenesulfonamide] | 5560 | 310 | 330 | 112 | 38 | 260 | > 10000 | 58 |  | 5780 | 3010 | 410 | 163 | 640
Cc1ccc(S(=O)(=O)NOC(C)(C)C)cc1-c1cnc(N)c(-n2cncn2)n1 [Example 112.1, 3-(5-Amino-6-(1H-1,2,4-triazol-1-yl)pyrazin-2-yl)-N-(tert-butoxy)-4-methylbenzenesulfonamide] | 1330 | 290 | 210 |  | 33 | 1700 | 6000 | 91 | > 10000 | 800 | 1470 | 380 | 63 | 1800
Cc1ccc(S(=O)(=O)NCC(C)(C)O)cc1-c1cnc(N)c(-n2cnc(CN(C)C)n2)n1 [Example 117, 3-(5-Amino-6-(3-((dimethylamino)methyl)-1H-1,2,4-triazol-1-yl)pyrazin-2-yl)-N-(2-hydroxy-2-methylpropyl)-4-methylbenzenesulfonamide hydrochloride salt] | 727 | 900 |  | 85 | 36 | > 10000 | > 10000 | 577 | > 10000 | > 10000 | > 3000 | > 10000 | 945 | > 10000
Cc1ccc(S(=O)(=O)N2CCC(F)C2)cc1-c1cnc(N)c(-n2cncn2)n1 (centres unmarked) [Example 127.2] | 3560 | 320 | 850 | 375 | 73 | 1000 | 9400 | 850 | > 10000 |  |  |  | 84 | 1700
Cc1ccc(S(=O)(=O)N2CC(C)(O)C2)cc1-c1cnc(N)c(-n2cncn2)n1 [Example 127.46] | 3770 | 1300 | 720 | 34 | 73 | > 9100 | > 9100 | 708 | > 9100 |  |  |  | 546 | 6900
Cc1ccc(S(=O)(=O)NCC2(CO)COC2)cc1-c1cnc(N)c(-c2cn(C)nc2C)n1 [Example 128, 3-(5-Amino-6-(1,3-dimethyl-1H-pyrazol-4-yl)pyrazin-2-yl)-N-((3-(hydroxymethyl)oxetan-3-yl)methyl)-4-methylbenzenesulfonamide] | 2990 | 150 | 100 | 22 | 14 | 500 |  | 209 | > 10000 | > 10000 | 9910 | > 10000 | 201 | 6800
Cc1ccc(S(=O)(=O)NC[C@H]2COCCN2)cc1-c1cnc(N)c(-c2cn(C)nc2C)n1 [Example 128.7, (S)-3-(5-Amino-6-(1,3-dimethyl-1H-pyrazol-4-yl)pyrazin-2-yl)-4-methyl-N-(morpholin-3-ylmethyl)benzenesulfonamide] | 826 | 220 | 690 | 20 | 79 | 1900 |  | 249 | > 10000 | > 10000 | > 10000 | > 10000 | 117 | > 10000
Cc1ccc(S(=O)(=O)NCC2CNCCO2)cc1-c1cnc(N)c(-c2cn(C)nc2C)n1 (centres unmarked) [Example 128.8, 3-(5-amino-6-(1,3-dimethyl-1H-pyrazol-4-yl)pyrazin-2-yl)-4-methyl-N-(morpholin-2-ylmethyl)benzenesulfonamide] | 1670 | 590 | 100 | <3.4 | 21 | 1800 |  | 751 | > 10000 | > 3000 | > 10000 | > 10000 | 421 | > 10000
